# Results taken from US8338367B2, “Fused heteroaryl diamide compounds useful as MMP-13 inhibitors” (Boehringer Ingelheim International GmbH, priority 2008, dated 2012).
# Target: MMP13 (Homo sapiens, UniProt P45452)
# Test: EnzoLyte 520 Generic MMP Assay Kit (FRET peptide substrate), MMP-13 inhibition
# Format: biochemical
# Description: The EnzoLyte™ 520 Generic MMP Assay Kit (AnaSpec Inc.) can detect the activity of several MMPs including MMP-1, 2, 3, 7, 8, 9, 13, and 14. This kit uses a 5-FAM/QXL™ 520 fluorescence resonance energy transfer (FRET) peptide as an MMP substrate. In the intact FRET peptide, the fluorescence of 5-FAM is quenched by QXL™ 520. Upon cleavage into two separate fragments by MMPs, the fluorescence of 5-FAM is recovered, and can be monitored at excitation/emission wavelengths=490 nm/520 nm. The assays are performed in a convenient 96-well or 384-well microplate format.
row,SMILES,IC50 [nM]
1,"CNC(=O)[C@@H](NC(=O)c1ccc(-c2cc3[nH]ccc3cn2)o1)C1CCCCC1 [5-(1H-Pyrrolo[3,2-c]pyridin-6-yl)-furan-2-carboxylic acid ((S)-cyclohexyl-methylcarbamoyl-methyl)-amide]",103
2,CNC(=O)[C@@H](NC(=O)c1ccc(-c2ccc3nc(Cc4ccncc4)[nH]c3c2)o1)C1CCCCC1 [5-(2-Pyridin-4-ylmethyl-3H-benzimidazol-5-yl)-furan-2-carboxylic acid ((S)-cyclohexyl-methylcarbamoyl-methyl)-amide],34
3,CNC(=O)[C@@H](NC(=O)c1ccc(-c2ccc3nc[nH]c3c2)o1)C1CCCCC1 [5-(3H-Benzimidazol-5-yl)-furan-2-carboxylic acid ((S)-cyclohexyl-methylcarbamoyl-methyl)-amide],270
4,"CNC(=O)[C@@H](NC(=O)c1ccc(-c2ccc3cc(C(=O)N4CCS(=O)(=O)CC4)[nH]c3c2)o1)C(C)C [5-[2-(1,1-Dioxo-λ^6-1-thiomorpholine-4-carbonyl)-1H-indol-6-yl]-furan-2-carboxylic acid ((S)-2-methyl-1-methylcarbamoyl-propyl)-amide]",200

# Second part, the compound after the results:
row,IC50 [nM],SMILES
1,65,"CNC(=O)[C@@H](NC(=O)c1ccc(-c2ccc3cc(C(=O)N4CC(C)OC(C)C4)[nH]c3c2)o1)C(C)C (stereo partly drawn) [5-[2-(2,6-Dimethyl-morpholine-4-carbonyl)-1H-indol-6-yl]-furan-2-carboxylic acid ((S)-2-methyl-1-methylcarbamoyl-propyl)-amide]"
2,415,CNC(=O)[C@@H](NC(=O)c1ccc(-c2ccc3cc(C(=O)N4CCOCC4)[nH]c3c2)o1)C(C)C [5-[2-(Morpholine-4-carbonyl)-1H-indol-6-yl]-furan-2-carboxylic acid ((S)-2-methyl-1-methylcarbamoyl-propyl)-amide]
3,340,CNC(=O)[C@@H](NC(=O)c1ccc(-c2ccc3cc(C(=O)N4CCOCC4)[nH]c3c2)o1)C1CCCCC1 [5-[2-(Morpholine-4-carbonyl)-1H-indol-6-yl]-furan-2-carboxylic acid ((S)-cyclohexyl-methylcarbamoyl-methyl)-amide]
4,300,CNC(=O)[C@@H](NC(=O)c1ccc(-c2ccc3cc(C(=O)N4CCN(C)CC4)[nH]c3c2)o1)C(C)C [5-[2-(4-Methyl-piperazine-1-carbonyl)-1H-indol-6-yl]-furan-2-carboxylic acid ((S)-2-methyl-1-methylcarbamoyl-propyl)-amide]
5,290,CNC(=O)[C@@H](NC(=O)c1ccc(-c2ccc3cc[nH]c3c2)o1)C1CCCCC1 [5-(1H-Indol-6-yl)-furan-2-carboxylic acid ((S)-cyclohexyl-methylcarbamoyl-methyl)-amide]
